Test results reported in ChEMBL document CHEMBL1201862, “PubChem BioAssay data set” (2004).
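Tested at 5 concentrations; 48 h exposure; 96-well plates; endpoints linearly interpolated, else capped at highest concentration. GI50 = concentration required for 50% inhibition of growth.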 Calls of active or inactive are those of the source. Cut-off read from the data, not from the text of the source: active = GI50 up to about 1.1 µM and inactive = higher.

Experiments:
Assay in all cases: NCI tumour cell line growth inhibition, 48 h
DU-145 = system: DU-145
CCRF-CEM = system: CCRF-CEM
KM12 = system: KM12
EKVX = system: EKVX
IGROV-1 = system: IGROV-1
NCI-H23 = system: NCI-H23
RPMI-8226 = system: RPMI-8226
UACC-62 = system: UACC-62
UACC-257 = system: UACC-257
COLO 205 = system: COLO 205
SF-539 = system: SF-539
TK-10 = system: TK-10
T47D = system: T47D
SR = system: SR
SK-MEL-5 = system: SK-MEL-5
MCF7 = system: MCF7
OVCAR-3 = system: OVCAR-3
MOLT-4 = system: MOLT-4
MDA-MB-435 = system: MDA-MB-435
SK-MEL-2 = system: SK-MEL-2

Measured: GI50

NC(=O)Cc1ncn(-c2ccccc2)n1
inactive: DU-145 > 100 µM | CCRF-CEM > 100 µM | KM12 > 100 µM | EKVX > 100 µM | IGROV-1 > 100 µM | NCI-H23 > 100 µM | RPMI-8226 > 100 µM | UACC-62 > 100 µM | UACC-257 > 100 µM | COLO 205 > 100 µM | SF-539 > 100 µM | TK-10 > 100 µM | T47D > 100 µM | SR > 100 µM | SK-MEL-5 > 100 µM | MCF7 > 100 µM | OVCAR-3 > 100 µM | MOLT-4 > 100 µM | MDA-MB-435 > 100 µM | SK-MEL-2 > 100 µM

CC(C)CCC1(O)O[C@H]2C[C@H]3[C@@H]4CCC5CC(=O)C=C[C@]5(C)[C@H]4CC[C@]3(C)[C@H]2[C@@H]1C (stereo not given in full)
inactive: DU-145 14.7 µM | CCRF-CEM 3.18 µM | KM12 11.8 µM | EKVX 16.7 µM | IGROV-1 15.6 µM | NCI-H23 4.26 µM | RPMI-8226 4.88 µM | UACC-62 14.6 µM | UACC-257 15 µM | COLO 205 14.4 µM | SF-539 17.6 µM | TK-10 11.8 µM | T47D 12 µM | SR 8.36 µM | SK-MEL-5 13.7 µM | MCF7 7.73 µM | OVCAR-3 10.8 µM | MOLT-4 2.56 µM | MDA-MB-435 11.6 µM | SK-MEL-2 15.2 µM

Cc1cn([C@H]2C=C[C@@H](CO)O2)c(=O)[nH]c1=O [STAVUDINE]
inactive: DU-145 > 1000 µM | CCRF-CEM 469 µM | KM12 > 1000 µM | EKVX > 1000 µM | IGROV-1 > 1000 µM | NCI-H23 776 µM | RPMI-8226 466 µM | UACC-62 902 µM | UACC-257 > 1000 µM | COLO 205 410 µM | SF-539 881 µM | TK-10 583 µM | T47D 473 µM | SR 780 µM | SK-MEL-5 > 1000 µM | MCF7 617 µM | OVCAR-3 > 1000 µM | MOLT-4 > 1000 µM | MDA-MB-435 > 1000 µM | SK-MEL-2 > 1000 µM

CN(C(=O)Cc1cc(Cl)c(Cl)cc1N=C=S)[C@H]1CCCC[C@@H]1N1CCCC1
inactive: DU-145 14.7 µM | CCRF-CEM 2.07 µM | KM12 14.8 µM | EKVX 17.3 µM | IGROV-1 13.9 µM | NCI-H23 15.2 µM | RPMI-8226 7.96 µM | UACC-62 16.4 µM | UACC-257 14.6 µM | COLO 205 9.73 µM | SF-539 23.6 µM | TK-10 10.1 µM | T47D 16.1 µM | SR 1.64 µM | SK-MEL-5 14 µM | MCF7 13.3 µM | OVCAR-3 15.6 µM | MOLT-4 3 µM | MDA-MB-435 6.49 µM | SK-MEL-2 15.3 µM

CCN(C(=O)N[C@@H](CC(C)C)C(=O)NCC(=O)OC)c1ccccc1
inactive: DU-145 > 100 µM | CCRF-CEM > 100 µM | KM12 > 100 µM | EKVX > 100 µM | IGROV-1 > 100 µM | NCI-H23 > 100 µM | RPMI-8226 > 100 µM | UACC-62 30.8 µM | UACC-257 25.9 µM | COLO 205 > 100 µM | SF-539 41 µM | TK-10 > 100 µM | T47D > 100 µM | SR > 100 µM | SK-MEL-5 75.5 µM | MCF7 > 100 µM | OVCAR-3 > 100 µM | MOLT-4 > 100 µM | MDA-MB-435 > 100 µM | SK-MEL-2 61.4 µM

O=C(O)CCCSc1ccccc1
inactive: DU-145 > 100 µM | CCRF-CEM > 100 µM | KM12 > 100 µM | EKVX > 100 µM | IGROV-1 > 100 µM | NCI-H23 > 100 µM | RPMI-8226 > 100 µM | UACC-62 > 100 µM | UACC-257 > 100 µM | COLO 205 > 100 µM | SF-539 > 100 µM | TK-10 > 100 µM | T47D > 100 µM | SR > 100 µM | SK-MEL-5 > 100 µM | MCF7 > 100 µM | OVCAR-3 > 100 µM | MOLT-4 > 100 µM | MDA-MB-435 > 100 µM | SK-MEL-2 > 100 µM

CCCCC1NC=Nc2c1ccc1c2[nH]c2ccccc21 (stereo not given)
inactive: DU-145 2.6 µM | CCRF-CEM 1.67 µM | KM12 5.82 µM | EKVX 3.8 µM | IGROV-1 3.08 µM | NCI-H23 1.73 µM | RPMI-8226 1.84 µM | UACC-62 4.27 µM | UACC-257 1.75 µM | COLO 205 1.79 µM | SF-539 3.05 µM | TK-10 5.71 µM | T47D 1.45 µM | SR 1.28 µM | SK-MEL-5 1.58 µM | MCF7 1.55 µM | OVCAR-3 6.1 µM | MOLT-4 2.05 µM | MDA-MB-435 1.88 µM | SK-MEL-2 3.82 µM
